Reference: PMC12080252, “Daphnia magna as an Alternative Model for (Simultaneous) Bioaccumulation and Chronic Toxicity Assessment—Controlled Exposure Study Indicates High Hazard of Heterocyclic PAHs” (Environmental Science & Technology, 2025)
Where “and” joins values, the source holds several entries; their conditions need not be identical. Equal entries are not always repeated.

Legend:
[1] = cited from earlier work
[2] = Chronic reproduction toxicity test (OECD 211) with passive dosing; format: in vivo, Daphnia magna; settings: Daphnia magna, in vivo, other: waterborne exposure by passive dosing from PDMS disks, 21-day test, read-out: % offspring mortality of total offspring
Description: (§1) Chronic toxicity tests with D. magna were performed according to the OECD guideline 211^2 using the passive dosing method. Two days before the tests, the exposure solution was predosed by shaking 10 PDMS disks loaded with the test substance in 1 L of medium for 48 h. Each test vessel (250 mL) was first flushed with the dosed solution to equilibrate the vessel walls, then filled with 100 mL of test solution, one PDMS disk, and one juvenile D. magna (<24 h old). The tests were conducted in loosely closed bottles to allow for adequate gas exchange and limit evaporation. The exposure medium was changed three times per week, and the animals were fed D. subspicatus daily (0.2 mg C/Daphnia/day). The number of offspring per adult and behavioral or physiological effects (e.g., size, movement, unhatched eggs) were recorded daily (except weekends). Dissolved oxygen, pH and temperature were also measured each week.
(§2) Tests were performed under static conditions (20 °C, 16:8 h light/dark cycle, 1 klux). Each compound was tested in 10 replicates for controls and limit tests (a single high concentration exposure to screen for significant toxic effects) and with 6 or 10 replicates for concentration–response tests. Reuse of silicone disks was included in some experiments (Table S3). Reproductive inhibition was assessed by counting offspring over 21 days. The number of offspring per mother in treatment groups was compared to controls, and the percent inhibition per replicate was used to generate concentration–response curves. A minimum of five concentrations per compound were tested to determine EC10, EC20, and EC50 values. For each test, three sets of polymers were rotated between loading, dosing, and exposure stages (Figure S2). Initial (before animal and food addition) and final (after 2–3 days of exposure, just before the medium change) water concentrations (CW) were monitored, with the latter collected after centrifugation to remove biomass (e.g., algae, carapaces, or feces).
(§3) All data are presented as average ± standard deviation. Student’s t test was used to analyze significance (p-value >0.05 considered insignificant). Concentration–response curve parameters (effective concentrations and confidence limits) and plots were generated using GraphPad Prism software (V6.01, GraphPad Software, La Jolla, CA, USA). The exposure concentrations were log10 transformed before fitting. Then a four parameters logistic model with variable slope was used to obtain EC10, EC20 and EC50 (see section S5 in SI file for details). Effective chemical activities (EA50) for chronic toxicity were calculated as follows: [drawing 1] 1 […]
(§4) S5. Concentration-response curve (CRC) fitting procedure
(§5) GraphPad Prism version 9.5.1 was used to fit CRC and obtain EC10, EC20, EC50 values and their confidence intervals. The exposure concentrations were log10 transformed before fitting. Then a four parameters logistic model with variable slope was used that describes the response as a function of following four parameters: minimum response (the Bottom), maximum response (the Top), the concentration required to cause a response half-way between the minimum and maximum (the EC50) and the slope of the curve […]
(§6) concentration. The Top was constrained to 100, the Bottom was constrained to 0, the HillSlope was not […]
(§7) !"# %& = !"# %&* − , × !"# 3 * 4
(§8) (, + ,((!"# %&'(<=)×-.!!/!"01)
(§9) Figure S7 Concentration-response curves of four NSO-PAHs based on reproductive inhibition during 21-day chronic toxicity tests with D. magna.
(§10) (1 picture or pasted object on this page, not shown here)

[3] = test system: Daphnia magna; assay: as above; format: in vivo; settings: for EC10: 21-day reproduction inhibition; for % inhibition, avr.: average of vessels; for % inhibition (of reproduction, per vessel): relative to controls; for wet weight of parent daphnids, change relative to control: end of 21-d exposure
Description: as §1, §2, §3, §4, §5, §6, §7, §8, §9, §10

[4] = test system: D. magna; assay: PNEC and risk quotient estimation; set-up: species or system Daphnia magna; settings: environmental concentration of surrogate (CRB, DBF, DBT) / PNEC
Description: To ensure a precautionary approach, an AF of 100 was applied, which accounts for interspecies variability and uncertainties in extrapolating laboratory findings to real-world conditions.
Environmental concentration (EC) data are obtained from A CRB, B DBF, and C DBT by choosing the highest
concentration that remains below the solubility limit of the respective NSO-PAH, as described in Reference 24.

[5] = Test 5-BCRB, avr. medium concentration 68.16 µg/L, 21 days
[6] = Test 5-BCRB, avr. medium concentration 68.16 µg/L, 21 days, one value per vessel

In the case of `c1ccc2c(c1)ccc1[nH]c3ccccc3c12` [BCRB, 7H-benzo[c]carbazole], the “SW (water solubility)” value ([1]; measured in previous work) is listed as 0.80 µg/mL, the “log KOW” value ([1]; n-octanol-water partition coefficient) is listed as 5.22 and the “log KOC” value ([1]; organic carbon-water partition coefficient) is listed as 4.84. It also gave a mortality at 21 days, 4.1 µg/L ([2]; 4.1 µg/L (Fig. S8)) of 3.3%, a mortality at 21 days, 9.8 µg/L ([2]; 9.8 µg/L (Fig. S8)) of 4% and a mortality at 21 days, 21.8 µg/L ([2]; 21.8 µg/L (Fig. S8)) of 2.9%. The mortality at 21 days, 44.6 µg/L ([2]; 44.6 µg/L (Fig. S8)) was 5.6%, the mortality at 21 days, 68.2 µg/L ([2]; 68.2 µg/L (Fig. S8)) was 32.4% and the EC10 ([3]; 97.5-2.5% confidence interval in brackets) was 15.0 (8.6-24.3) μg L^-1. For the same compound, the EC10 ([3]; confidence interval in brackets) was 69.2 (39.7-111.8) nmol L^-1, the “growth of parent D. magna (wet weight)” value ([3]; 21-day test, p-value <0.05) was “significantly inhibited D. magna growth” and the “LOEC (lowest observed effect concentration, reproduction inhibition)” value ([3]; 21 days, p-value <0.05 vs controls) was 9.8 μg L^–1. For the same compound, the “%offspring mortality” value ([3]; BCRB 3.99 µg/L, 21 days) was 3.29%, the “% inhibition, avr.” value ([3]; BCRB 3.99 µg/L, 21 days) was 0.7% and the “#average live offspring” value ([3]; BCRB 3.99 µg/L, 21 days, per mother) was 83. The “#total live offspring” value ([3]; BCRB 3.99 µg/L, 21 days, sum of all vessels) was 499, the “%offspring mortality” value ([3]; BCRB 9.55 µg/L, 21 days) was 4.04% and the “% inhibition, avr.” value ([3]; BCRB 9.55 µg/L, 21 days) was 15.0%. The “#average live offspring” value ([3]; BCRB 9.55 µg/L, 21 days, per mother) was 71, the “% inhibition (of reproduction, per vessel)” value ([3]; BCRB 9.55 µg/L, 21 days, single vessels 1-6) was 6.9% and the “#total live offspring” value ([3]; BCRB 9.55 µg/L, 21 days, sum of all vessels) was 427. For the same compound, the “%offspring mortality” value ([3]; BCRB 21.94 µg/L, 21 days) was 2.91%, the “% inhibition, avr.” value ([3]; BCRB 21.94 µg/L, 21 days) was 20.4% and the “#average live offspring” value ([3]; BCRB 21.94 µg/L, 21 days, per mother) was 67. The “#total live offspring” value ([3]; BCRB 21.94 µg/L, 21 days, sum of all vessels) was 400, the “%offspring mortality” value ([3]; BCRB 43.46 µg/L, 21 days) was 5.62% and the “% inhibition, avr.” value ([3]; BCRB 43.46 µg/L, 21 days) was 39.8%. The “#average live offspring” value ([3]; BCRB 43.46 µg/L, 21 days, per mother) was 50, the “% inhibition (of reproduction, per vessel)” value ([3]; BCRB 43.46 µg/L, 21 days, single vessels 2-6) was 39.1% and 54.6% and 28.4% and 37.9% and the “#total live offspring” value ([3]; BCRB 43.46 µg/L, 21 days, sum of all vessels) was 252. For the same compound, the “Survival of the mother animal” value ([3]; BCRB 43.46 µg/L, vessel 1, day 5) was “dead”, the “Total #offspring per mother (live, per vessel)” value ([3]; BCRB avr. medium concentration 3.99 µg/L (methanol for dosing 0.063 g/L), 21 days, single vessels 1-6) was 104 and 86 and 87 and 79 and 68 and 75 and the “Total #offspring per mother (live, per vessel)” value ([3]; BCRB avr. medium concentration 9.55 µg/L (methanol for dosing 0.125 g/L), 21 days, single vessels 1-6) was 68 and 63 and 78 and 79 and 61. For the same compound, the “Total #offspring per mother (live, per vessel)” value ([3]; BCRB avr. medium concentration 21.94 µg/L (methanol for dosing 0.25 g/L), 21 days, single vessels 1-6) was 67 and 73 and 77 and 64 and 63 and 56, the “Total #offspring per mother (live, per vessel)” value ([3]; BCRB avr. medium concentration 43.46 µg/L (methanol for dosing 0.5 g/L), 21 days, single vessels 2-6) was 51 and 38 and 60 and 52 and the “EA50 (effective chemical activity)” value ([3]; EC50/subcooled liquid solubility, eq 1) was 0.004 unitless. The “%offspring mortality” value [3, 5] was 32.43%, the “#total live offspring” value ([3]; Test 5-BCRB, avr. medium concentration 68.16 µg/L, 21 days, all vessels) was 75 and the “% inhibition, avr.” value [3, 5] was 82.1%. For the same compound, the “% inhibition (of reproduction, per replicate vessel)” value [3, 6] was 82.1% and 86.9% and 83.3% and 74.9%, the “Total #dead offspring per mother (per replicate vessel)” value [3, 6] was 9 and 2 and 8 and the “#average live offspring” value ([3]; Test 5-BCRB, avr. medium concentration 68.16 µg/L, 21 days, per surviving mother) was 15. For the same compound, the “Total #offspring per mother (per replicate vessel)” value ([3]; Test 5-BCRB, avr. medium concentration 68.16 µg/L, methanol dosing conc. 1 g/L, 21 days, one value per vessel) was 15 and 11 and 14 and 21, the “Mother survival (parent mortality)” value ([3]; Test 5-BCRB, avr. medium concentration 68.16 µg/L, vessel 3, day 5) was “dead” and the “CTLBB (critical target lipid body burden)” value ([3]; derived from chronic EC10 using eq 3) was 12.6 μmol g^-1 octanol. For the same compound, the “wet weight of parent daphnids, change relative to control” value (shortened to “wet weight … change relative to control”) ([3]; 4.1 µg/L (Fig. S9)) was “+17%”, the “wet weight … change relative to control” value ([3]; 9.8 µg/L (Fig. S9)) was -14% and the “wet weight … change relative to control” value ([3]; 21.8 µg/L (Fig. S9)) was -15%. The “wet weight … change relative to control” value ([3]; 44.6 µg/L (Fig. S9)) was -34%, the “wet weight … change relative to control” value ([3]; 68.2 µg/L (Fig. S9)) was -77% and the swimming behavior ([3]; two highest exposure concentrations, 22 and 68 μg L^–1) was “induced locomotor changes”. For the same compound, the “RQ (EC/PNEC)” value [4] was 4000.
